Experimental data taken from US20080249136A1, “Antimicrobial Composition and Method” (priority 2005, published 2008).

Legend:
[1] = test system: Pseudomonas aeruginosa ATCC #10145; assay: Efficacy (log kill) against Pseudomonas aeruginosa, 96-well assay block; assay type: cell-based
Description: (§1) The cationic polymers are pH adjusted in the range of 6-7.5. It should be noted that the Ecopol polymers require an acidic environment for complete dissolution. Once the polymer is dissolved, NaOH can be used to bring the pH to the desired range.
(§2) The efficacy of the antimicrobial combinations against Staphylococcus aureus ATCC #6538 and Pseudomonas aeruginosa ATCC #10145 is measured. Testing is done in 96-well 1.5 ml polypropylene assay blocks using 96-well polypropylene sealing mats for covering the samples during incubation. The individual wells in the 96-well assay block are identified as follows: 12 columns numbered 1-12 across the top row of wells on the block, and 8 rows lettered A-H on the first column of the block. Columns 1 and 2 are reserved to test the activity of the biocide in buffer (pH 7.2) in the absence of the cationic polymer. Columns 11 and 12 are always reserved as control, to verify growth of the microorganism in the absence of the biocide. The preparation of the assay blocks involves the following steps in chronological order:
(§3) 1. Preparation of the biocide solution in an appropriate solvent at a concentration equal to 10 times the final concentration desired in row A; 2. Addition of predetermined amount of the stock biocide solution to each well in row A; 3. Addition of a predetermined amount of the solvent to rows B-H and wells 11A and 12A; 4. Serial dilution of the biocide, by transferring a predetermined amount of the solution from row A to row B, mixing, and repeating the transfer down all the rows. After the mixing step in row H, the transferring amount is taken out and disposed of; 5. Inoculation of the buffer and polymer solutions with the test organism. For bacteria, a 24-hour culture is used. Following the incubation period, the organism concentration in the medium is determined by reading the OD at 620 nm. This culture is used to inoculate the buffer and the polymer solution to a bacterial concentration of 1E6 cfu/ml. Fungal challenges are performed with fungal spores isolated from inoculated SDA slants. The spores are collected by swiping the slant with a sterile cotton swab and re-suspended in tryptic soy broth. Tween 80 is added to aid in spore separation and the suspension was homogenized. The spore concentration is obtained by use of a hemacytometer. This suspension is used to inoculate the buffer and the polymeric solutions to a spore concentration of 3-5E6 cfu/ml; 6. Addition of the inoculated buffer or polymer solution to each well. 7. Thorough mixing of the blends in each well; 8. Sampling for the time 0, 24 h, 48 h and 7 days reading is accomplished using a 96-well 300 μl polystyrene microplate. Tryptic Soy broth (TSB) is used for the bacterial studies and Malt (YM) broth buffered at pH 7.4 for fungal studies; 9. The microplates are incubated at 35° C. for bacteria and 30° C. for fungus, until the control samples show adequate growth; and 10. Data is recorded as the log reduction in microorganism concentration relative to the inoculum.

[2] = test system: Staphylococcus aureus ATCC #6538; assay: Efficacy (log kill) against Staphylococcus aureus, 96-well assay block; assay type: cell-based
Description: as §1, §2, §3

ClC=CC[N+]12CN3CN(CN(C3)C1)C2.[Cl-] [CTAC, 1-(3-chloroallyl)-3,5,7-triaza-1-azoniaadamantane chloride]
Log kill 24 h ([1]; Active Conc. 46.8 ppm): 0 log | Log kill 48 h ([1]; Active Conc. 46.8 ppm): 0 log | Log kill 7 days ([1]; Active Conc. 46.8 ppm): 0 log | Log kill t0 ([1]; Active Conc. 46.8 ppm): 0 log | Log kill 24 h ([1]; Active Conc. 158 ppm): 0 log | Log kill 48 h ([1]; Active Conc. 158 ppm): 0.5 log | Log kill 7 days ([1]; Active Conc. 158 ppm): 5 log | Log kill t0 ([1]; Active Conc. 158 ppm): 0 log | Log kill 24 h ([1]; Active Conc. 355.6 ppm): 1 log | Log kill 48 h ([1]; Active Conc. 355.6 ppm): 4 log | Log kill 7 days ([1]; Active Conc. 355.6 ppm): 6 log | Log kill t0 ([1]; Active Conc. 355.6 ppm): 0 log | Log kill 24 h ([1]; Active Conc. 800 ppm): 2.5 log | Log kill 48 h ([1]; Active Conc. 800 ppm): 5 log | Log kill 7 days ([1]; Active Conc. 800 ppm): 6 log | Log kill t0 ([1]; Active Conc. 800 ppm): 0 log | Log kill 24 h ([2]; Active Conc. 52.7 ppm): 0 log | Log kill 48 h ([2]; Active Conc. 52.7 ppm): 0 log | Log kill 7 days ([2]; Active Conc. 52.7 ppm): 1 log | Log kill t0 ([2]; Active Conc. 52.7 ppm): 0 log | Log kill 24 h ([2]; Active Conc. 79 ppm): 0 log | Log kill 48 h ([2]; Active Conc. 79 ppm): 0 log | Log kill 7 days ([2]; Active Conc. 79 ppm): 1 log | Log kill t0 ([2]; Active Conc. 79 ppm): 0 log | Log kill 24 h ([2]; Active Conc. 177.8 ppm): 0 log | Log kill 48 h ([2]; Active Conc. 177.8 ppm): 0 log | Log kill 7 days ([2]; Active Conc. 177.8 ppm): 4 log | Log kill t0 ([2]; Active Conc. 177.8 ppm): 0 log | Log kill 24 h ([2]; Active Conc. 400 ppm): 0 log | Log kill 48 h ([2]; Active Conc. 400 ppm): 0 log | Log kill 7 days ([2]; Active Conc. 400 ppm): 6 log | Log kill t0 ([2]; Active Conc. 400 ppm): 0 log

Cc1ccc(S(=O)(=O)C(I)I)cc1 [DIMTS, diiodomethyl-para-tolylsulfone]
Log kill 24 h ([1]; Active Conc. 414 ppm): 0 log | Log kill 48 h ([1]; Active Conc. 414 ppm): 1 log | Log kill 7 days ([1]; Active Conc. 414 ppm): 2 log | Log kill t0 ([1]; Active Conc. 414 ppm): 0 log | Log kill 24 h ([1]; Active Conc. 2000 ppm): 1 log | Log kill 48 h ([1]; Active Conc. 2000 ppm): 1 log | Log kill 7 days ([1]; Active Conc. 2000 ppm): 2 log | Log kill t0 ([1]; Active Conc. 2000 ppm): 0 log | Log kill 24 h ([2]; Active Conc. 189.7 ppm): 0 log | Log kill 48 h ([2]; Active Conc. 189.7 ppm): 0 log | Log kill 7 days ([2]; Active Conc. 189.7 ppm): 0 log | Log kill t0 ([2]; Active Conc. 189.7 ppm): 0 log | Log kill 24 h ([2]; Active Conc. 265.6 ppm): 0 log | Log kill 48 h ([2]; Active Conc. 265.6 ppm): 0 log | Log kill 7 days ([2]; Active Conc. 265.6 ppm): 0 log | Log kill t0 ([2]; Active Conc. 265.6 ppm): 0 log | Log kill 24 h ([2]; Active Conc. 1428.6 ppm): 0 log | Log kill 48 h ([2]; Active Conc. 1428.6 ppm): 0 log | Log kill 7 days ([2]; Active Conc. 1428.6 ppm): 2 log | Log kill t0 ([2]; Active Conc. 1428.6 ppm): 0.5 log | Log kill 24 h ([2]; Active Conc. 2000 ppm): 1 log | Log kill 48 h ([2]; Active Conc. 2000 ppm): 1 log | Log kill 7 days ([2]; Active Conc. 2000 ppm): 6 log | Log kill t0 ([2]; Active Conc. 2000 ppm): 1 log

Oc1ccccc1-c1ccccc1 [OPP, ortho-phenylphenol]
Log kill 24 h ([1]; Active Conc. 130.2 ppm): 0 log | Log kill 48 h ([1]; Active Conc. 130.2 ppm): 1 log | Log kill 7 days ([1]; Active Conc. 130.2 ppm): 1.5 log | Log kill t0 ([1]; Active Conc. 130.2 ppm): 0 log | Log kill 24 h ([1]; Active Conc. 182.2 ppm): 1.5 log | Log kill 48 h ([1]; Active Conc. 182.2 ppm): 2.5 log | Log kill 7 days ([1]; Active Conc. 182.2 ppm): 2.5 log | Log kill t0 ([1]; Active Conc. 182.2 ppm): 1.5 log | Log kill 24 h ([1]; Active Conc. 222.2 ppm): 4.5 log | Log kill 48 h ([1]; Active Conc. 222.2 ppm): 3.5 log | Log kill 7 days ([1]; Active Conc. 222.2 ppm): 4 log | Log kill t0 ([1]; Active Conc. 222.2 ppm): 4 log | Log kill 24 h ([2]; Active Conc. 124 ppm): 2 log | Log kill 48 h ([2]; Active Conc. 124 ppm): 2 log | Log kill 7 days ([2]; Active Conc. 124 ppm): 6 log | Log kill t0 ([2]; Active Conc. 124 ppm): 0 log | Log kill 24 h ([2]; Active Conc. 182.2 ppm): 6 log | Log kill 48 h ([2]; Active Conc. 182.2 ppm): 6 log | Log kill 7 days ([2]; Active Conc. 182.2 ppm): 6 log | Log kill t0 ([2]; Active Conc. 182.2 ppm): 1 log | Log kill 24 h ([2]; Active Conc. 278.9 ppm): 3.5 log | Log kill 48 h ([2]; Active Conc. 278.9 ppm): 3 log | Log kill 7 days ([2]; Active Conc. 278.9 ppm): 4 log | Log kill t0 ([2]; Active Conc. 278.9 ppm): 0.5 log | Log kill 24 h ([2]; Active Conc. 418.4 ppm): 6 log | Log kill 48 h ([2]; Active Conc. 418.4 ppm): 6 log | Log kill 7 days ([2]; Active Conc. 418.4 ppm): 4 log | Log kill t0 ([2]; Active Conc. 418.4 ppm): 6 log

Oc1cc(Cl)ccc1Oc1ccc(Cl)cc1Cl [Triclosan, 2,4,4′-trichloro-2-hydroxyphenyl ether]
contact time to achieve 3 log reduction in P. aeruginosa ([1]; 800 ppm of Triclosan): greater than 48 hours | Log kill 24 h ([1]; Triclosan Conc. 105.3 ppm): 1 log | Log kill 48 h ([1]; Triclosan Conc. 105.3 ppm): 1 log | Log kill 7 days ([1]; Triclosan Conc. 105.3 ppm): 2 log | Log kill t0 ([1]; Triclosan Conc. 105.3 ppm): 0 log | Log kill 24 h ([1]; Triclosan Conc. 355.6 ppm): 1 log | Log kill 48 h ([1]; Triclosan Conc. 355.6 ppm): 2 log | Log kill 7 days ([1]; Triclosan Conc. 355.6 ppm): 2 log | Log kill t0 ([1]; Triclosan Conc. 355.6 ppm): 1 log | Log kill 24 h ([1]; Triclosan Conc. 800 ppm): 1 log | Log kill 48 h ([1]; Triclosan Conc. 800 ppm): 2.5 log | Log kill 7 days ([1]; Triclosan Conc. 800 ppm): 4 log | Log kill t0 ([1]; Triclosan Conc. 800 ppm): 1 log

zinc pyrithione [ZPT]
control of P. aeruginosa before 48 h ([1]; 800 ppm active, before 48 h): no control | Log kill 24 h ([1]; Active Conc. 46.8 ppm): 0 log | Log kill 48 h ([1]; Active Conc. 46.8 ppm): 0 log | Log kill 7 days ([1]; Active Conc. 46.8 ppm): 2 log | Log kill t0 ([1]; Active Conc. 46.8 ppm): 0 log | Log kill 24 h ([1]; Active Conc. 533.3 ppm): 0 log | Log kill 48 h ([1]; Active Conc. 533.3 ppm): 1.5 log | Log kill 7 days ([1]; Active Conc. 533.3 ppm): 3 log | Log kill t0 ([1]; Active Conc. 533.3 ppm): 0 log | Log kill 24 h ([1]; Active Conc. 800 ppm): 0 log | Log kill 48 h ([1]; Active Conc. 800 ppm): 2 log | Log kill t0 ([1]; Active Conc. 800 ppm): 0 log | Log kill 24 h ([2]; Active Conc. 5.9 ppm): 0 log | Log kill 48 h ([2]; Active Conc. 5.9 ppm): 1 log | Log kill 7 days ([2]; Active Conc. 5.9 ppm): 1 log | Log kill t0 ([2]; Active Conc. 5.9 ppm): 0 log | Log kill 24 h ([2]; Active Conc. 29.6 ppm): 0 log | Log kill 48 h ([2]; Active Conc. 29.6 ppm): 1 log | Log kill 7 days ([2]; Active Conc. 29.6 ppm): 1 log | Log kill t0 ([2]; Active Conc. 29.6 ppm): 0 log | Log kill 24 h ([2]; Active Conc. 100 ppm): 0.5 log | Log kill 48 h ([2]; Active Conc. 100 ppm): 1.5 log | Log kill 7 days ([2]; Active Conc. 100 ppm): 2 log | Log kill t0 ([2]; Active Conc. 100 ppm): 1 log
